Measured values taken from PubChem BioAssay (NCI).
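Exposure lasted 48 hours, with cells grown in 96-well plates and compounds tested at five concentrations. Abbreviation: GI50, concentration required for 50% inhibition of growth. The concentration for full growth arrest is given as TGI.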

How the values were obtained:
Assay in all cases: inhibition of tumour cell growth, NCI panel, 48 h
ACHN renal = tested on: ACHN renal
COLO 205 colon = tested on: COLO 205 colon
HS 578T breast = tested on: HS 578T breast
IGROV1 ovarian = tested on: IGROV1 ovarian
M14 melanoma = tested on: M14 melanoma
MDA-MB-231 breast = tested on: MDA-MB-231 breast
RPMI-8226 leukemia = tested on: RPMI-8226 leukemia
SN12C renal = tested on: SN12C renal
HT29 colon = tested on: HT29 colon
MALME-3M melanoma = tested on: MALME-3M melanoma

Row | Structure (SMILES) | TGI (ACHN renal) [µM] | TGI (COLO 205 colon) [µM] | TGI (HS 578T breast) [µM] | TGI (IGROV1 ovarian) [µM] | TGI (M14 melanoma) [µM] | TGI (MDA-MB-231 breast) [µM] | TGI (RPMI-8226 leukemia) [µM] | TGI (SN12C renal) [µM] | TGI (HT29 colon) [µM] | TGI (MALME-3M melanoma) [µM] | GI50 (ACHN renal) [µM] | GI50 (COLO 205 colon) [µM] | GI50 (HS 578T breast) [µM] | GI50 (HT29 colon) [µM] | GI50 (M14 melanoma) [µM] | GI50 (MDA-MB-231 breast) [µM] | GI50 (RPMI-8226 leukemia) [µM] | GI50 (SN12C renal) [µM] | GI50 (IGROV1 ovarian) [µM] | GI50 (MALME-3M melanoma) [µM]
1 | Cc1ccc(C)c2c(N=Nc3ccccc3[N+](=O)[O-])c(O)[nH]c12 | > 100 | > 100 | > 100 | > 100 | > 100 | > 100 | > 100 | > 100 |  |  |  |  |  |  |  |  |  |  |  | 
2 | Cc1ccc(S(=O)(=O)SCc2ccccc2)cc1 | > 100 | 27.4 |  | > 100 | 39.7 |  | 33.5 | 50.4 | 47.1 | 81.5 |  |  |  |  |  |  |  |  |  | 
3 | Cc1ccc2c(CC(=O)O)cc(=O)oc2c1 | > 100 | > 100 |  | > 100 | > 100 |  | > 100 | > 100 | > 100 | > 100 |  |  |  |  |  |  |  |  |  | 
4 | Clc1ccc(C2=NOC3C4CCC(C4)C23)cc1 (stereo not given) | > 100 | > 100 |  | > 100 | > 100 |  | > 100 | > 100 | > 100 | > 100 |  |  |  |  |  |  |  |  |  | 
5 | CC(=O)c1cccc(NC(=O)c2ccc(NC3=C(Cl)C(=O)N(Cc4ccccc4)C3=O)cc2)c1 | 49.1 | > 100 | 88.7 |  | 33.3 | 38.3 | 15.1 | 9.63 | > 100 |  | 22.7 | 29.2 | 22.6 | 27.3 | 17.1 | 15 | 3.31 | 1.92 |  | 
6 | Brc1ccc(C2SCc3nc4ccccc4n32)cc1 (stereo not given) | 40.2 | 27.3 |  | 27.3 | 25.5 |  | 28.6 | 27.7 | 20.9 | 30.2 |  |  |  |  |  |  |  |  |  | 
7 | O=C(CC1C(=O)Nc2ccccc2S1(=O)=O)Nc1cccc(Cl)c1 (stereo not given) | 33.5 |  |  | 33.4 | 42.1 |  | 24.1 | 29.5 | 32.3 | 63.7 |  |  |  |  |  |  |  |  |  | 
8 | COc1cc2ccc(CC(N)=O)cc2cc1OC |  | > 100 |  | > 100 | > 100 |  | > 100 | > 100 | > 100 | > 100 |  |  |  |  |  |  |  |  |  | 
9 | COc1ccc(C(=O)OC2C(OC3C(O)COC(O[C@H]4C[C@H]5[C@@H]6CC=C7C[C@@H](O)CC[C@]7(C)[C@H]6CC[C@]5(C)[C@H]4[C@H](C)C(=O)CCC(C)C)C3OC(C)=O)OCC(O)C2O)cc1 (stereo not given in full) | 9.22 | 0.0194 | 0.0215 | 8.79 |  | 4.55 | < 0.003 | 28.3 | 5.91 | 0.129 | 0.00747 | < 0.003 | < 0.003 | < 0.003 |  | 0.0313 | < 0.003 | 1.11 | < 0.003 | < 0.003
10 | COC1=CC(=O)NCCN1 | > 100 | > 100 |  | > 100 | > 100 |  |  | > 100 | > 100 | > 100 |  |  |  |  |  |  |  |  |  | 
11 | CN1C(=O)C(=CN(C)c2ccccc2)C(=O)N(C)C1=O | > 100 |  |  | > 100 | > 100 |  | > 100 | > 100 |  | > 100 |  |  |  |  |  |  |  |  |  | 
12 | CC(=O)NC1=C(Sc2ccc(Cl)cc2)C(=O)c2ccccc2C1=O | 4.85 | 3.6 | 61.6 | 17.1 |  | 10.2 | 3.65 | 16.2 | 25.6 | 8 |  |  |  |  |  |  |  |  |  | 
13 | N=C(N)SCc1ccc([N+](=O)[O-])cc1[N+](=O)[O-] | 21.1 | 7.96 |  | 15.3 | 29.4 | 36.6 | 72.2 | 27.2 | 18.9 | 18.7 | 8.04 | 2.9 |  | 5.44 | 12.8 | 12 | 5.26 | 12.1 | 4.33 | 3.48
14 | O=S(=O)(NCCO)c1cc[c]([Sb](=[O])([OH])[OH])cc1 | > 100 |  | > 100 | > 100 | > 100 | > 100 | > 100 | > 100 | > 100 | > 100 | > 100 |  | > 100 | > 100 | > 100 | > 100 | > 100 | > 100 | > 100 | > 100
15 | Cc1cnc(SCCN2CCN(C)CC2)nc1-c1cc2ccccc2s1 |  | 29.2 |  |  | 27.4 |  |  | 21.3 | 18.7 | 31.6 |  |  |  |  |  |  |  |  |  | 
16 | FC(F)(F)c1[nH]ncc1-c1nc2ccc3[nH]ncc3c2c2c1CCCC2 | 9.62 | 4.08 |  | 5 | 2.9 | 6.19 | 6.66 | 5.6 | 6.76 | 3.82 | 1.39 | 1.54 |  | 2.11 | 1.09 | 1.84 | 1.42 | 1.53 | 0.942 | 0.927
17 | COc1cc2c(cc1OC)[C@@H]([C@H](O)c1ccccc1)NCC2 | > 100 | > 100 |  | > 100 | > 100 |  | > 100 | > 100 | > 100 | > 100 |  |  |  |  |  |  |  |  |  | 
18 | Cc1cc(NS(=O)(=O)c2ccc(Nc3c4ccccc4nc4c(C(=O)Nc5ccc(S(=O)(=O)N=C(N)N)cc5)ccc(Cl)c34)cc2)no1 | > 100 | > 100 |  |  | > 100 |  | > 100 | > 100 | > 100 | > 100 |  |  |  |  |  |  |  |  |  | 
19 | COc1ccc2c(c1)CCN1C3=C(CCC3)C(=O)C[C@@H]21 | > 100 | > 100 |  | > 100 | > 100 |  | > 100 | > 100 | > 100 | > 100 |  |  |  |  |  |  |  |  |  | 
20 | CSc1nc(N)c2c(n1)NC(c1ccccc1)C1CCc3ccccc3C1=N2 (stereo not given) | > 100 | > 100 |  | 74 | > 100 | > 100 | > 100 | > 100 | > 100 | > 100 | 84.4 | 25.8 |  | 7.63 | 11.9 | > 100 | 5.72 | 30.9 | 1.61 | > 100
